Consider 17 compounds from patent US20140121231A1, “PYRANOPYRIDONE INHIBITORS OF TANKYRASE” (Hoffmann-La Roche, Inc., priority 2012, published 2014).

Counter-ions that a name gives are not always drawn. Where only a bound is given, the exact number is not on record here.

The subject of test [1] is Wnt stimulated TCF transcriptional activity. The experiment in a line: Tankyrase 1 Assay (Example 72): HEK293-TS 112 TCF reporter cell line. In kind it is cell-based. The conditions noted are these: footnote 2: Tankyrase 1 inhibition assay in Example 72 (TOPbrite luciferase reporter, Wnt3A 0.5 ug/mL, 16 hours); read-out: TNKS1 IC50. Here is the method:
Inhibition of the Wnt stimulated TCF transcriptional activity by tankyrase inhibitors was determined utilizing a HEK293-TS 112 TCF reporter cell line. A Wnt-responsive luciferase reporter named TOPbrite was constructed by cloning the enhancer element of Super8xTOPFlash containing eight TCF/LEF binding sites into the pGL4.28 vector (Promega) upstream of the minimal promoter element, and selecting for hygromycin B resistance (50 μg/ml). Cells were seeded into 384-well plates in the presence of 0.5 ug/mL of Wnt3A at a density of 20,000 cells per well in 25 ul of F:12 DMEM media supplemented with 10% FBS and 2 mM Glutamax. Cells seeded without the addition of Wnt3A were used as background signal. Compounds of various concentrations were added to cells and incubated at 37 degrees with 5% CO2 for 16 hours. The assay was terminated with the addition of Promega Dual Glo kit per manufacturer's instructions. A ratio of TOPbrite Firefly Luciferase and SV40 Renillla Luciferase was calculated and the background from the neutral wells was subtracted yielding the final normalized measurement of TCF transcriptional activity. Compound IC50s were determined by four-parameter curve fitting using GeneData software.

Test [2] has as its target T1, PARP1 (His6-PARP1, full length) (Homo sapiens, UniProt P09874).
T1 construct: His6-PARP1 (full length) can be substituted for His6-TNKS 1
Briefly: TR-FRET Binding Assay (Example 71), PARP1. As to conditions: TR-FRET assay of Example 71 with His6-PARP1. The procedure, abridged: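 Competition binding: test compound displaces biotin-IWR2 from His6-PARP1 (full length), read by Eu-streptavidin/APC-anti-His6 TR-FRET. PARP1 30 min at 26°C with compound and probe in Tris pH 7.4 buffer with DTT, BSA and NP-40, then detection reagents for 60 min. Excitation 330 nm, emission 615 and 665 nm; […].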
In general terms: Time-resolved FRET reads energy transfer from a long-lived donor to a nearby acceptor.

The target of another test is T2, tankyrase 2 (His6-TNKS2) (Homo sapiens, UniProt Q9H2K2).
T2 construct: His6-tankyrase 2 (construct: 934-1166) (His6-TNKS2)
T2 sequence (Q9H2K2 934-1166): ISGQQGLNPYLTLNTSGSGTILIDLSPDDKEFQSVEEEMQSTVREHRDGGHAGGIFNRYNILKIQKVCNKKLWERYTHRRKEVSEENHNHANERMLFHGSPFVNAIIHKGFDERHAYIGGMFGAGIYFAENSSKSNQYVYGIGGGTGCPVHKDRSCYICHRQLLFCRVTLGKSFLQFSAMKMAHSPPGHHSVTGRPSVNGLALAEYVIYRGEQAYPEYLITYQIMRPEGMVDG
The experiment in a line: μHTS-TNKS-IWR2 TR-FRET Binding Assay (Example 71), TNKS2. As to conditions: footnote 1: Tankyrase 1 and 2 inhibition assay in Example 71 (TR-FRET).

The target of another test is T3, Tankyrase 1 (TNKS1) (Homo sapiens, UniProt O95271).
T3 construct: His6-TNKS1, MW=28.2 KDa (construct: 1088-1327, 1266M)
T3 sequence (O95271 1088-1327): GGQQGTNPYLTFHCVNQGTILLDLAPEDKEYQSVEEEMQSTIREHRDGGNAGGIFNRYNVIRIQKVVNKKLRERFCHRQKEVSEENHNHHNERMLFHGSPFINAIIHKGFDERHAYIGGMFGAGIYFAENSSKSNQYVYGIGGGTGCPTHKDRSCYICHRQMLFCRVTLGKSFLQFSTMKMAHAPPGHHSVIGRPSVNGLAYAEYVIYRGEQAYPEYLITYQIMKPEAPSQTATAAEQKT
The experiment in a line: μHTS-TNKS-IWR2 TR-FRET Binding Assay (Example 71), TNKS1.

T1 sequence (P09874 whole entry, species assumed): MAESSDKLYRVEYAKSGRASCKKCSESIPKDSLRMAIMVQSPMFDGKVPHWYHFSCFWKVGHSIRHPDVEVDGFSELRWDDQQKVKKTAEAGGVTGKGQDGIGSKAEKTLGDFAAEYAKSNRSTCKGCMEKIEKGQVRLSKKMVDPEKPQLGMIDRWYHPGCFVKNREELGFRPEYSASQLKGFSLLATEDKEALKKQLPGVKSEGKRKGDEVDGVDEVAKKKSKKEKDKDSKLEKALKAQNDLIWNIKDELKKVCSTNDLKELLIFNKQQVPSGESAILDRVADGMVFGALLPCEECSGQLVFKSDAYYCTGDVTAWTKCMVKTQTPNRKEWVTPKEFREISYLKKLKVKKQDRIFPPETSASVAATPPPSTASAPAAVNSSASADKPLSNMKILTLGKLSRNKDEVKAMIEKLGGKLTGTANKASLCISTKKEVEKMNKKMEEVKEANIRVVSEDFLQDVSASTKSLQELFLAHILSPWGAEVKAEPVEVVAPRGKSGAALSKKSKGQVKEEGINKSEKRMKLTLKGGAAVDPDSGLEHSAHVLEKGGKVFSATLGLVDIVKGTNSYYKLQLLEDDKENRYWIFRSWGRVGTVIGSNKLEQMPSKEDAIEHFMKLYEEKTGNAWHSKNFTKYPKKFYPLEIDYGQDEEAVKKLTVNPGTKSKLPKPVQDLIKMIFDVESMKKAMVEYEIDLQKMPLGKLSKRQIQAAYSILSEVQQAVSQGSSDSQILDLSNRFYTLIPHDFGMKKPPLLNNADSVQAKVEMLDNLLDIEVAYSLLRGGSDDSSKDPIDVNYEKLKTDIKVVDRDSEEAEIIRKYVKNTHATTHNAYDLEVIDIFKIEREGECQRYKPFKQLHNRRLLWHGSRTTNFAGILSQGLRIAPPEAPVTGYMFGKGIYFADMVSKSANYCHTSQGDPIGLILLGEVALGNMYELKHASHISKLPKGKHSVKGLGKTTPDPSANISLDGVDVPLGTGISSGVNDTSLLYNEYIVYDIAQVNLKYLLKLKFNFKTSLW

By IC50 is commonly meant the midpoint of a concentration-inhibition curve. Regarding `Cc1cccc2c(=O)[nH]c3c(c12)COC(C(C)(C)CO)C3` (racemic) [Compound I-1, rac-2-(2-Hydroxy-1,1-dimethyl-ethyl)-5-methyl-1,2,4,10-tetrahydro-3-oxa-10-aza-phenanthren-9-one], the IC50 was found to be 10.6 nM in test [1] and 91.8 nM in test [2].

Consider `CCC(C)C1Cc2[nH]c(=O)c3ccccc3c2CO1` (stereo not shown) [Compound I-18, 2-sec-Butyl-1,2,4,10-tetrahydro-3-oxa-10-aza-phenanthren-9-one], for which the values for the IC50 (at tankyrase 2 (His6-TNKS2); on Tankyrase 1 (TNKS1); in test [2]) were 88.3 nM, 56.8 nM and more than 50000 nM, respectively.

Regarding `CC(C)(C)OC(=O)N1CCC(C2Cc3[nH]c(=O)c4ccccc4c3CO2)C1` (stereo not shown) [Compound I-35, 3-(9-Oxo-1,4,9,10-tetrahydro-2H-3-oxa-10-aza-phenanthren-2-yl)-pyrrolidine-1-carboxylic acid tert-butyl ester], the IC50 on tankyrase 2 (His6-TNKS2) was found to be 56 nM; at Tankyrase 1 (TNKS1) it was 37.9 nM; in test [2], 69.9 nM.

With `O=c1[nH]c2c(c3ccccc13)COC(C1CCNC1)C2` (stereo not shown) [Compound I-36, 2-Pyrrolidin-3-yl-1,2,4,10-tetrahydro-3-oxa-10-aza-phenanthren-9-one, hydrochloride], the IC50 at tankyrase 2 (His6-TNKS2) worked out at 246 nM; on Tankyrase 1 (TNKS1), 168 nM; in test [2], 27.7 nM.

Turning to `CC(=O)N1CCC(C2Cc3[nH]c(=O)c4ccccc4c3CO2)C1` (stereo not shown) [Compound I-37, 2-(1-Acetyl-pyrrolidin-3-yl)-1,2,4,10-tetrahydro-3-oxa-10-aza-phenanthren-9-one], the figures for the IC50 (at tankyrase 2 (His6-TNKS2); at Tankyrase 1 (TNKS1); in test [2]) were 67.4 nM, 49.9 nM and 104 nM, respectively.

As to `O=C(C1CC1)N1CCC(C2Cc3[nH]c(=O)c4ccccc4c3CO2)C1` (stereo not shown) [Compound I-44, 2-(1-Cyclopropanecarbonyl-pyrrolidin-3-yl)-1,2,4,10-tetrahydro-3-oxa-10-aza-phenanthren-9-one], the results for the IC50 (on tankyrase 2 (His6-TNKS2); on Tankyrase 1 (TNKS1); in test [2]) were 65.6 nM, 42.2 nM and 67.3 nM, respectively.

Take `CC1(C(=O)N2CCC(C3Cc4[nH]c(=O)c5ccccc5c4CO3)C2)CC1` (stereo not shown) [Compound I-45, 2-[1-(1-Methyl-cyclopropanecarbonyl)-pyrrolidin-3-yl]-1,2,4,10-tetrahydro-3-oxa-10-aza-phenanthren-9-one]: the IC50 at tankyrase 2 (His6-TNKS2) stood at 86.7 nM; on Tankyrase 1 (TNKS1), 64.7 nM; in test [2], 78.3 nM.

For the compound `CC(C)(C)OC(=O)N1CCC(C2Cc3[nH]c(=O)c4cccnc4c3CO2)CC1` (stereo not shown) [Compound I-51, tert-butyl 4-(5-oxo-6 7 8 10-tetrahydropyrano[4 3-h][l 6]naphthyridin-8-yl)piperidine-1-carboxylate], the IC50 on tankyrase 2 (His6-TNKS2) is 49.8 nM; at Tankyrase 1 (TNKS1), 39 nM; in test [2] it was 363 nM.

Take `Cc1cccc2c(=O)[nH]c3c(c12)COC(C(C)(C)COCc1ccccc1)C3` (stereo not shown) [Compound I-68, 3-(2-benzyloxy-1 1-dimethyl-ethyl)-10-methyl-1 3 4 5-tetrahydropyrano[4 3-c]isoquinolin-6-one]: the IC50 on tankyrase 2 (His6-TNKS2) amounted to 28.7 nM; on Tankyrase 1 (TNKS1) it was 28 nM; in test [2] it was 26 nM.

`CC(C)C1Cc2[nH]c(=O)c3cccc(F)c3c2CO1` (stereo not shown) [Compound I-69, 10-Fluoro-3-isopropyl-1 3 4 5-tetrahydropyrano[4,3-c]isoquinolin-6-one]: the IC50 in test [1] was 11.2 nM.

Regarding `CC(C)C1Cc2[nH]c(=O)c3cccc(Cl)c3c2CO1` (stereo not shown) [Compound I-70, 10-chloro-3-isopropyl-1 3 4 5-tetrahydropyrano[4,3-c]isoquinolin-6-one], in test [1], the IC50 is 12.9 nM.

Turning to `Cc1cccc2c(=O)[nH]c3c(c12)COC(C1CCN(C2COC2)CC1)C3` (stereo not shown) [Compound I-71, 10-methyl-3-[1-(oxetan-3-yl)-4-piperidyl]-1 3 4 5-tetrahydropyrano[4,3-c]isoquinolin-6-one], the half-maximal inhibitory concentration (IC50) in test [1] turned out to be 2.01 nM.

`Cc1cccc2c(=O)[nH]c3c(c12)COC(C1CCN(C2CCOCC2)CC1)C3` (stereo not shown) [Compound I-72, 10-Methyl-3-(1-tetrahydropyran-4-yl-4-piperidyl)-1 3 4 5-tetrahydropyrano[4,3-c]isoquinolin-6-one]: in test [1], the IC50 was 92.4 nM.

As to `COCCN1CCC(C2Cc3[nH]c(=O)c4cccc(C)c4c3CO2)CC1` (stereo not shown) [Compound I-73, 3-[1-(2-methoxyethyl)-4-piperidyl]-10-methyl-1 3 4 5-tetrahydropyrano[4,3-c]isoquinolin-6-one], the IC50 in test [1] turned out to be 29.4 nM.

`Cc1cccc2c(=O)[nH]c3c(c12)COC(C1CCN(S(=O)(=O)C2CCOCC2)CC1)C3` (stereo not shown) [Compound I-74, 10-methyl-3-(1-tetrahydropyran-4-ylsulfonyl-4-piperidyl)-1 3 4 5-tetrahydropyrano[4,3-c]isoquinolin-6-one]: in test [1], the IC50 amounted to 9.5 nM.

On to `Cc1cccc2c(=O)[nH]c3c(c12)COC(C1CCN(CCO)CC1)C3` (stereo not shown) [Compound I-75, 3-[1-(2-hydroxyethyl)-4-piperidyl]-10-methyl-1 3 4 5-tetrahydropyrano[4,3-c]isoquinolin-6-one], for which the IC50 in test [1] is 27.2 nM.

With `Cc1cccc2c(=O)[nH]c3c(c12)COC(CC(C)O)C3` (stereo not shown) [Compound I-76, 3-(2-hydroxypropyl)-10-methyl-1 3 4 5-tetrahydropyrano[4,3-c]isoquinolin-6-one], the IC50 in test [1] came to 15.9 nM.
